pIC50: −log10 of the molar value.
Legend:
Tyk2 = Tyk2 (Homo sapiens (Human), UniProt P29597); assay: pSTAT4 Cell Assay (MSD, NK92 cells); assay type: cell-based; conditions: MSD
JH2 domain of human Tyk2 = JH2 domain of human Tyk2 (Homo sapiens (Human), UniProt P29597); assay: JH2 Biochemical Assay (TR-FRET probe displacement); assay type: binding
[1] = TR-FRET probe displacement, JH2 domain of human Tyk2
[2] = JH2 domain of human Tyk2, TR-FRET probe displacement

Chain of JH2 domain of human Tyk2 (P29597 575-876): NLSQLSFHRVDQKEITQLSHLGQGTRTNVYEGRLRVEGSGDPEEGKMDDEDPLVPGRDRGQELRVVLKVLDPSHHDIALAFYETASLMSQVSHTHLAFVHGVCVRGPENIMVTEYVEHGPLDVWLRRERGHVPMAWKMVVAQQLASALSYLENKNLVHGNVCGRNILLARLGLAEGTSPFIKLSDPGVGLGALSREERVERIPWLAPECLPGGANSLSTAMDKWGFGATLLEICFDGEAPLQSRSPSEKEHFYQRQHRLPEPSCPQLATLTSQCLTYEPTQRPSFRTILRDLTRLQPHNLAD
Chain of Tyk2 (P29597 whole entry, the tested form may be a part): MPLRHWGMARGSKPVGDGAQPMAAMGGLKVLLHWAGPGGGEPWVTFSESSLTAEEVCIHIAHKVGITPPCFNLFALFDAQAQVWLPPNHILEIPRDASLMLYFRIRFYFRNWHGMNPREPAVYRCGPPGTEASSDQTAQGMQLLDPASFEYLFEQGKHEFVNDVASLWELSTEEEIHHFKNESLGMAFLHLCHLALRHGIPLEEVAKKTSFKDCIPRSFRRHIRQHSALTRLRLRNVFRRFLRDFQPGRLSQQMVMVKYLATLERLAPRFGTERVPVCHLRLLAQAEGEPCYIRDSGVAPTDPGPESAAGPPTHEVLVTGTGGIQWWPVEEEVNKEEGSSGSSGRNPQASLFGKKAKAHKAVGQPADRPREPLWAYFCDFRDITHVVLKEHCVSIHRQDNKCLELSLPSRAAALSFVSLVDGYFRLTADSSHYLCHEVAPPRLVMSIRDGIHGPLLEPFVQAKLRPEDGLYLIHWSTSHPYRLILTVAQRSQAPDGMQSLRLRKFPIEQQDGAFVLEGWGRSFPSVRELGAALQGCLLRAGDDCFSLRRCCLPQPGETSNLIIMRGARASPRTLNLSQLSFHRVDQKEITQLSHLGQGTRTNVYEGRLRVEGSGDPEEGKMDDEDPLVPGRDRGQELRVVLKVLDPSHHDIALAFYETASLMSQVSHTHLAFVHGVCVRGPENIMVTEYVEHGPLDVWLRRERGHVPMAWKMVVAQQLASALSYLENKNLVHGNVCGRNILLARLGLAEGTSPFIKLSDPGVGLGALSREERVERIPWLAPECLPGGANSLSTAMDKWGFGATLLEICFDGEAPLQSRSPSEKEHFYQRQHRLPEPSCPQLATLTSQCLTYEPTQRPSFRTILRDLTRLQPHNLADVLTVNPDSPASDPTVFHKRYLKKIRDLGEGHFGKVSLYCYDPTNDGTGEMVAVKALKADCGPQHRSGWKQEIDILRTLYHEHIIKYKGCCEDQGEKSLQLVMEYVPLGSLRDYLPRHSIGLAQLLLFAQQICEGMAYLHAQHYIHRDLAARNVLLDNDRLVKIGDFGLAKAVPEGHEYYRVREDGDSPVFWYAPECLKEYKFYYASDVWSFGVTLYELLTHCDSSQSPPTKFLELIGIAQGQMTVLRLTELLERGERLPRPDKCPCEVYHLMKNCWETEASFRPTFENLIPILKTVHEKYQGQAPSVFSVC

Row | Compound | pIC50 (Tyk2) | pIC50 (JH2 domain of human Tyk2; [1]) | pIC50 (JH2 domain of human Tyk2; [2])
1 | CC(=O)Nc1cc(Nc2cc(C)nc(C(C)(F)F)n2)c(Oc2ccnc(C(F)(F)F)n2)cn1 [Example 359, N-(4-((2-(1,1-difluoroethyl)-6-methylpyrimidin-4-yl)amino)-5-((2-(trifluoromethyl)pyrimidin-4-yl)oxy)pyridin-2-yl)acetamide] | ≤ 6.00 | ≤ 6.00 | 
2 | [2H]C([2H])([2H])C([2H])([2H])Oc1cnc(NC(C)=O)cc1Nc1cc(-c2cnn(C(C)C)c2)nc(C(C)(F)F)n1 [Example 361, N-(4-((2-(1,1-difluoroethyl)-6-(1-isopropyl-1H-pyrazol-4-yl)pyrimidin-4-yl)amino)-5-(ethoxy-d5)pyridin-2-yl)acetamide] | ≥ 8.00 | ≥ 8.00 | 
3 | COc1cnc(NC(C)=O)cc1Nc1cc(-c2cnn(C(C)C)c2)nc(C(C)(F)F)n1 [Example 363, N-(4-((2-(1,1-difluoroethyl)-6-(1-isopropyl-1H-pyrazol-4-yl)pyrimidin-4-yl)amino)-5-methoxypyridin-2-yl)acetamide] | ≥ 8.00 | ≥ 8.00 | 
4 | CC(=O)Nc1cc(Nc2cc(C(C)C)nc(C(C)(F)F)n2)c(OCc2ccccn2)cn1 [Example 365, N-(4-((2-(1,1-difluoroethyl)-6-isopropylpyrimidin-4-yl)amino)-5-(pyridin-2-ylmethoxy)pyridin-2-yl)acetamide] | ≥ 8.00 | ≥ 8.00 | 
5 | COCCOc1cnc(NC(C)=O)cc1Nc1cc(-c2cnn(C(C)C)c2)nc(C(C)(F)F)n1 [Example 366, N-(4-((2-(1,1-difluoroethyl)-6-(1-isopropyl-1H-pyrazol-4-yl)pyrimidin-4-yl)amino)-5-(2-methoxyethoxy)pyridin-2-yl)acetamide] | ≥ 8.00 | ≥ 8.00 | 
6 | CCOc1cnc(NC(C)=O)cc1Nc1cc(-c2cncc(C)c2)nc(C(C)(F)F)n1 [Example 367, N-(4-((2-(1,1-difluoroethyl)-6-(5-methylpyridin-3-yl)pyrimidin-4-yl)amino)-5-ethoxypyridin-2-yl)acetamide] | 7.00 to 8.00 | ≥ 8.00 | 
7 | CCOc1cnc(NC(C)=O)cc1Nc1cc(-c2ccc(CC)nc2)nc(C(C)(F)F)n1 [Example 368, N-(4-((2-(1,1-difluoroethyl)-6-(6-ethylpyridin-3-yl)pyrimidin-4-yl)amino)-5-ethoxypyridin-2-yl)acetamide] | ≥ 8.00 | ≥ 8.00 | 
8 | CCOc1cnc(NC(C)=O)cc1Nc1cc(-c2ccc(OC)nc2)nc(C(C)(F)F)n1 [Example 369, N-(4-((2-(1,1-difluoroethyl)-6-(6-methoxypyridin-3-yl)pyrimidin-4-yl)amino)-5-ethoxypyridin-2-yl)acetamide] | 7.00 to 8.00 | ≥ 8.00 | 
9 | CCOc1cnc(NC(C)=O)cc1Nc1cc(-c2cncc(OC)c2)nc(C(C)(F)F)n1 [Example 370, N-(4-((2-(1,1-difluoroethyl)-6-(5-methoxypyridin-3-yl)pyrimidin-4-yl)amino)-5-ethoxypyridin-2-yl)acetamide] | 7.00 to 8.00 |  | ≥ 8.00
10 | CCOc1cnc(NC(C)=O)cc1Nc1cc(-c2cnn(CC(C)C)c2)nc(C(C)(F)F)n1 [Example 371, N-(4-((2-(1,1-difluoroethyl)-6-(1-isobutyl-1H-pyrazol-4-yl)pyrimidin-4-yl)amino)-5-ethoxypyridin-2-yl)acetamide] | ≥ 8.00 |  | ≥ 8.00
11 | CCOc1cnc(NC(C)=O)cc1Nc1cc(Cl)nc(C(C)(F)F)n1 [Example 372, N-(4-((6-chloro-2-(1,1-difluoroethyl)pyrimidin-4-yl)amino)-5-ethoxypyridin-2-yl)acetamide] | 7.00 to 8.00 |  | ≥ 8.00
12 | COc1cnc(NC(C)=O)cc1Nc1cc(-c2ccncc2F)nc(C(C)(F)F)n1 [Example 373, N-(4-((2-(1,1-difluoroethyl)-6-(3-fluoropyridin-4-yl)pyrimidin-4-yl)amino)-5-methoxypyridin-2-yl)acetamide] | 7.00 to 8.00 |  | ≥ 8.00
13 | COc1cnc(NC(C)=O)cc1Nc1cc(-c2cnn(C3CCC3)c2)nc(C(C)(F)F)n1 [Example 374, N-(4-((6-(1-cyclobutyl-1H-pyrazol-4-yl)-2-(1,1-difluoroethyl)pyrimidin-4-yl)amino)-5-methoxypyridin-2-yl)acetamide] | 6.00 to 7.00 |  | 7.00 to 8.00
14 | COc1cnc(NC(C)=O)cc1Nc1cc(-c2cnn(C(F)F)c2)nc(C(C)(F)F)n1 [Example 375, N-(4-((2-(1,1-difluoroethyl)-6-(1-(difluoromethyl)-1H-pyrazol-4-yl)pyrimidin-4-yl)amino)-5-methoxypyridin-2-yl)acetamide] | 6.00 to 7.00 |  | 7.00 to 8.00
15 | COc1cnc(NC(C)=O)cc1Nc1cc(-c2cnn(C3CC3)c2)nc(C(C)(F)F)n1 [Example 376, N-(4-((6-(1-cyclopropyl-1H-pyrazol-4-yl)-2-(1,1-difluoroethyl)pyrimidin-4-yl)amino)-5-methoxypyridin-2-yl)acetamide] | 7.00 to 8.00 |  | 7.00 to 8.00
16 | COc1cnc(NC(C)=O)cc1Nc1cc(-c2cnn(C3COC3)c2)nc(C(C)(F)F)n1 [Example 377, N-(4-((2-(1,1-difluoroethyl)-6-(1-(oxetan-3-yl)-1H-pyrazol-4-yl)pyrimidin-4-yl)amino)-5-methoxypyridin-2-yl)acetamide] | 7.00 to 8.00 |  | 7.00 to 8.00

Row | Compound | pIC50 (Tyk2) | pIC50 (JH2 domain of human Tyk2; [1]) | pIC50 (JH2 domain of human Tyk2; [2])
17 | COc1cnc(NC(C)=O)cc1Nc1cc(-c2cnn(CC3CC3)c2)nc(C(C)(F)F)n1 [Example 378, N-(4-((6-(1-(cyclopropylmethyl)-1H-pyrazol-4-yl)-2-(1,1-difluoroethyl)pyrimidin-4-yl)amino)-5-methoxypyridin-2-yl)acetamide] | 7.00 to 8.00 |  | ≥ 8.00
18 | COc1cnc(NC(C)=O)cc1Nc1cc(-c2cnn(CCN3CCOCC3)c2)nc(C(C)(F)F)n1 [Example 379, N-(4-((2-(1,1-difluoroethyl)-6-(1-(2-morpholinoethyl)-1H-pyrazol-4-yl)pyrimidin-4-yl)amino)-5-methoxypyridin-2-yl)acetamide] | 7.00 to 8.00 |  | ≥ 8.00
19 | COc1cnc(NC(C)=O)cc1Nc1cc(-c2cnn(CCN(C)C)c2)nc(C(C)(F)F)n1 [Example 380, N-(4-((2-(1,1-difluoroethyl)-6-(1-(2-(dimethylamino)ethyl)-1H-pyrazol-4-yl)pyrimidin-4-yl)amino)-5-methoxypyridin-2-yl)acetamide] | 7.00 to 8.00 |  | ≥ 8.00
20 | COc1cnc(NC(C)=O)cc1Nc1cc(-c2cnn(CC(F)(F)F)c2)nc(C(C)(F)F)n1 [Example 381, N-(4-((2-(1,1-difluoroethyl)-6-(1-(2,2,2-trifluoroethyl)-1H-pyrazol-4-yl)pyrimidin-4-yl)amino)-5-methoxypyridin-2-yl)acetamide] | 7.00 to 8.00 |  | ≥ 8.00
21 | COc1cnc(NC(C)=O)cc1Nc1cc(-c2ccncc2)nc(C(C)(F)F)n1 [Example 382, N-(4-((2-(1,1-difluoroethyl)-6-(pyridin-4-yl)pyrimidin-4-yl)amino)-5-methoxypyridin-2-yl)acetamide] | 7.00 to 8.00 |  | 7.00 to 8.00
22 | COc1cnc(NC(C)=O)cc1Nc1cc(-c2cnn(C(C)C)c2F)nc(C(C)(F)F)n1 [Example 383, N-(4-((2-(1,1-difluoroethyl)-6-(5-fluoro-1-isopropyl-1H-pyrazol-4-yl)pyrimidin-4-yl)amino)-5-methoxypyridin-2-yl)acetamide] | 7.00 to 8.00 |  | 7.00 to 8.00
23 | COc1cnc(NC(C)=O)cc1Nc1cc(-c2cn[nH]c2F)nc(C(C)(F)F)n1 [Example 385, N-(4-((2-(1,1-difluoroethyl)-6-(5-fluoro-1H-pyrazol-4-yl)pyrimidin-4-yl)amino)-5-methoxypyridin-2-yl)acetamide] | 6.00 to 7.00 |  | 7.00 to 8.00
24 | COCCn1cc(-c2cc(Nc3cc(NC(C)=O)ncc3OC)nc(C(C)(F)F)n2)cn1 [Example 386, N-(4-((2-(1,1-difluoroethyl)-6-(1-(2-methoxyethyl)-1H-pyrazol-4-yl)pyrimidin-4-yl)amino)-5-methoxypyridin-2-yl)acetamide] | 7.00 to 8.00 |  | ≥ 8.00
25 | COc1cnc(NC(C)=O)cc1Nc1cc(-c2cccnc2)nc(C(C)(F)F)n1 [Example 388, N-(4-((2-(1,1-difluoroethyl)-6-(pyridin-3-yl)pyrimidin-4-yl)amino)-5-methoxypyridin-2-yl)acetamide] | 7.00 to 8.00 |  | ≥ 8.00
26 | COc1cnc(NC(C)=O)cc1Nc1cc(-c2cncc(C)c2)nc(C(C)(F)F)n1 [Example 389, N-(4-((2-(1,1-difluoroethyl)-6-(5-methylpyridin-3-yl)pyrimidin-4-yl)amino)-5-methoxypyridin-2-yl)acetamide] | 7.00 to 8.00 |  | ≥ 8.00
27 | COc1cnc(NC(C)=O)cc1Nc1cc(-c2cnc(N3CCOCC3)nc2)nc(C(C)(F)F)n1 [Example 390, N-(4-((2-(1,1-difluoroethyl)-2′-morpholino-[4,5′-bipyrimidin]-6-yl)amino)-5-methoxypyridin-2-yl)acetamide] | 6.00 to 7.00 |  | 7.00 to 8.00
28 | COc1ccc(-c2cc(Nc3cc(NC(C)=O)ncc3OC)nc(C(C)(F)F)n2)cn1 [Example 391, N-(4-((2-(1,1-difluoroethyl)-6-(6-methoxypyridin-3-yl)pyrimidin-4-yl)amino)-5-methoxypyridin-2-yl)acetamide] | 7.00 to 8.00 |  | ≥ 8.00
29 | COc1ccc(-c2cc(Nc3cc(NC(C)=O)ncc3OC)nc(C(C)(F)F)n2)cn1 [Example 392, N-(4-((2-(1,1-difluoroethyl)-6-(6-methoxypyridin-3-yl)pyrimidin-4-yl)amino)-5-methoxypyridin-2-yl)acetamide] | ≥ 8.00 |  | ≥ 8.00
30 | COc1cnc(NC(C)=O)cc1Nc1cc(-c2ccc(C#N)cc2)nc(C(C)(F)F)n1 [Example 393, N-(4-((6-(4-cyanophenyl)-2-(1,1-difluoroethyl)pyrimidin-4-yl)amino)-5-methoxypyridin-2-yl)acetamide] | 7.00 to 8.00 |  | ≥ 8.00
31 | COc1cnc(NC(C)=O)cc1Nc1cc(-c2ccc(F)c(C#N)c2)nc(C(C)(F)F)n1 [Example 394, N-(4-((6-(3-cyano-4-fluorophenyl)-2-(1,1-difluoroethyl)pyrimidin-4-yl)amino)-5-methoxypyridin-2-yl)acetamide] | 6.00 to 7.00 |  | ≥ 8.00
